The target of experiment [1] is JAK1 (Homo sapiens (Human), UniProt P23458). Briefly: Jak Biochemical HTRF Assay (JAK1). How it is done:
(§1) Jak Biochemical HTRF Assay Protocol
(§2) The ability of compounds to inhibit the activity of JAK1, JAK2, JAK3, and Tyk2 was measured using a recombinant purified GST-tagged catalytic domain for each enzyme (Invitrogen JAK1 #M4290, JAK2 #M4290, JAK3 #M4290, Tyk2 #M4290) in an HTRF format biochemical assay. […] The basic assay protocol is as follows: First, 250 nL of diluted compounds in DMSO were dispensed into the wells of a dry 384-well Black plate (Greiner #781076) using a Labcyte Echo 555 acoustic dispenser. Subsequent reagent additions employed an Agilent Bravo. Next, 18 μL of 1.11× enzyme and 1.11× substrate in 1× assay buffer (Invitrogen kinase buffer # PV3189, 2 mM DTT, 0.05% BSA) were added to the wells and shaken and then preincubated for 30 minutes at room temperature to allow compound binding to equilibrate. After equilibration, 2 μL of 10×ATP in 1× assay buffer was added to initiate the kinase reaction and the plates were shaken and then incubated at room temperature for 120 minutes. At the end of the incubation, 20 μL of 2× stop buffer (streptavidin-Dylight 650 (Thermo #84547B/100 mL), Eu-tagged pY20 antibody (Perkin Elmer #AD0067), EDTA, HEPES, and Triton) was added to quench the reaction. Plates were shaken and centrifuged and then incubated 60 minutes at room temperature and then read on a Perkin Elmer Envision (Xex=337 nm, λem=665 and 615 nm, TRF delay time=20 μs). HTRF signal=10,000*665 nm reading/615 nm reading. After normalization to untreated controls, the percent inhibition of the HTRF signal at each compound concentration was calculated. The plot of percent inhibition versus the log of compound concentration was fit with a 4-parameter dose response equation to calculate IC50 values.

For experiment [2], the target named is JAK2 (Homo sapiens (Human), UniProt O60674). The experiment can be described thus: Jak Biochemical HTRF Assay (JAK2). The conditions noted are these: recombinant purified GST-tagged catalytic domain, [ATP] 8.5 μM, [E] 0.052 nM. How it is done:
as §1, §2

The mark [3] stands for this setting: recombinant purified GST-tagged catalytic domain, HTRF, [ATP] 31.8 μM, [E] 1.405 nM.

Molecules are shown by their SMILES. Like-named read-outs stand apart in the source and are kept apart here.

Sequence of JAK1 (P23458 875-1153): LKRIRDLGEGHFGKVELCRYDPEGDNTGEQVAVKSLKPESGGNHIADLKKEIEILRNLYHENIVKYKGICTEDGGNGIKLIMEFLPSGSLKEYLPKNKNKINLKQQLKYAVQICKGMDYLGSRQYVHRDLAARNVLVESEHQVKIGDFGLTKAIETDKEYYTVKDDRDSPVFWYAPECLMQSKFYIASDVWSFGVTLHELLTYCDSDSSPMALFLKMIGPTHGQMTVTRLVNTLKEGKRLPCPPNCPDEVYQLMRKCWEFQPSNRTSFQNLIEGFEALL
Sequence of JAK2 (O60674 849-1124): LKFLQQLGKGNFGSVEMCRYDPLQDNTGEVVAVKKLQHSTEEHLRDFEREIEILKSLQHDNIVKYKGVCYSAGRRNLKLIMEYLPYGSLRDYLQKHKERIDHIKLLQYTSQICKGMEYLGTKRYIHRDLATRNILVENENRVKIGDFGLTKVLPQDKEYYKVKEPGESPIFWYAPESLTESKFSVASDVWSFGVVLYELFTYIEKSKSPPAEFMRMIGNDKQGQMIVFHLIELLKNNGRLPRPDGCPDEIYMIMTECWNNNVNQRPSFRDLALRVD

For `CCC1(n2nc(Nc3ccc(C(=O)N4C[C@H](C)O[C@@H](C)C4)c(C)c3)c3c(=O)[nH]ccc32)CCN(C(=O)OC(C)(C)C)CC1` [Example 3-7, tert-butyl 4-{3-[(4-{[(2S,6S)-2,6-dimethylmorpholin-4-yl]carbonyl}-3-methylphenyl)amino]-4-oxo-4,5-dihydro-1H-pyrazolo[4,3-c]pyridin-1-yl}-4-ethylpiperidine-1-carboxylate], the half-maximal inhibitory concentration (IC50) (in general, the concentration that inhibits the measured activity by half) was 520 pM in experiment [1] (setting [3]) and 630 pM in experiment [2].

Turning to `CCC1(n2nc(Nc3ccc(C(=O)N4CCOCC(C)C4)c(C)c3)c3c(=O)[nH]ccc32)CCN(C(=O)OC(C)(C)C)CC1` (single isomer, unassigned) [Example 3-20, tert-butyl 4-ethyl-4-[3-({3-methyl-4-[(6R or 6S-methyl-1,4-oxazepan-4-yl)carbonyl]phenyl}amino)-4-oxo-4,5-dihydro-1H-pyrazolo[4,3-c]pyridin-1-yl] piperidine-1-carboxylate], the IC50 in experiment [1] (setting [3]) was found to be 990 pM; in experiment [2] it was 530 pM.

For the compound `CCC1(n2nc(Nc3ccc(C(=O)N4C[C@@H]5C[C@H]4CO5)c(C)c3)c3c(=O)[nH]ccc32)CCN(C(=O)OC(C)(C)C)CC1` [Example 2-22, tert-butyl 4-(3-(4-((1S,4S)-5-oxa-2-aza-bicyclo[2.2.1]heptane-2-carbonyl)-3-methylphenylamino)-4-oxo-4,5-dihydropyrazolo[4,3-c]pyridin-1-yl)-4-ethylpiperidine-1-carboxylate], the IC50 in experiment [1] (setting [3]) is 360 pM; in experiment [2], 440 pM.

Turning to `CCC1(n2nc(Nc3ccc(C(=O)N4C5CCC4COC5)c(C)c3)c3c(=O)[nH]ccc32)CCN(C(=O)OC(C)(C)C)CC1` [Example 2-13, tert-butyl 4-(3-((4-(3-oxa-8-azabicyclo [3.2.1]octane-8-carbonyl)-3-methylphenyl)amino)-4-oxo-4,5-dihydro-1H-pyrazolo[4,3-c]pyridin-1-yl)-4-ethylpiperidine-1-carboxylate], the concentration for half-maximal inhibition (IC50) is 520 pM in experiment [1] and 540 pM in experiment [2].

Regarding `CCC1(n2nc(Nc3ccc(C(=O)N4CC5(COC5)C4)c(C)c3)c3c(=O)[nH]ccc32)CCN(C(=O)OC(C)(C)C)CC1` [Example 2-14, tert-butyl 4-ethyl-4-(3-((3-methyl-4-(2-oxa-6-azaspiro[3.3]heptane-6-carbonyl)phenyl)amino)-4-oxo-4,5-dihydro-1H-pyrazolo [4,3-c]pyridin-1-yl) piperidine-1-carboxylate], the 50% inhibitory concentration (IC50) in experiment [1] (setting [3]) stood at 300 pM; in experiment [2], 430 pM.

For the compound `CCC1(n2nc(Nc3ccc(C(=O)N4CCSCC4)c(C)c3)c3c(=O)[nH]ccc32)CCN(C(=O)OC(C)(C)C)CC1` [Example 2-21, tert-butyl 4-ethyl-4-(3-(3-methyl-4-(thiomorpholine-4-carbonyl)phenylamino)-4-oxo-4,5-dihydropyrazolo[4,3-c]pyridin-1-yl) piperidine-1-carboxylate], the IC50 is 840 pM in experiment [1] (setting [3]) and 930 pM in experiment [2].

Turning to `CCC1(n2nc(Nc3ccc(C(=O)N4CC5CCC(C4)O5)c(C)c3)c3c(=O)[nH]ccc32)CCN(C(=O)OC(C)(C)C)CC1` [Example 2-1, tert-butyl 4-(3-((4-(8-oxa-3-azabicyclo[3.2.1]octane-3-carbonyl)-3-methylphenyl)amino)-4-oxo-4,5-dihydro-1H-pyrazolo[4,3-c]pyridin-1-yl)-4-ethylpiperidine-1-carboxylate], the concentration for half-maximal inhibition (IC50) worked out at 470 pM in experiment [1] (setting [3]) and 490 pM in experiment [2].

Consider `CCC1(n2nc(Nc3ccnc(F)c3)c3c(=O)[nH]ccc32)CCN(C(=O)OC(C)(C)C)CC1` [Example 2-40, tert-butyl 4-ethyl-4-(3-(2-fluoropyridin-4-ylamino)-4-oxo-4,5-dihydropyrazolo[4,3-c]pyridin-1-yl) piperidine-1-carboxylate], for which the concentration for half-maximal inhibition (IC50) amounted to 380 pM in experiment [1] (setting [3]) and 5240 pM in experiment [2].

In the case of `CCC1(n2nc(Nc3ccc(C(=O)N4CCOC(C)(C)C4)c(C)c3)c3c(=O)[nH]ccc32)CCN(C(=O)OC(C)(C)C)CC1` [Example 3-2, tert-butyl 4-[3-({4-[(2,2-dimethylmorpholin-4-yl)carbonyl]-3-methylphenyl}amino)-4-oxo-4,5-dihydro-1H-pyrazolo[4,3-c]pyridin-1-yl]-4-ethylpiperidine-1-carboxylate], the concentration for half-maximal inhibition (IC50) in experiment [1] (setting [3]) was 610 pM; in experiment [2], 750 pM.

Turning to `CCC1(n2nc(Nc3ccc(C(=O)N4C[C@@H](C)O[C@@H](C)C4)c(C)c3)c3c(=O)[nH]ccc32)CCN(C(=O)OC(C)(C)C)CC1` [Example 3-4, tert-butyl 4-{3-[(4-{[(2R,6S)-2,6-dimethylmorpholin-4-yl]carbonyl}-3-methylphenyl)amino]-4-oxo-4,5-dihydro-1H-pyrazolo[4,3-c]pyridin-1-yl}-4-ethylpiperidine-1-carboxylate], the IC50 in experiment [1] (setting [3]) was found to be 1090 pM; in experiment [2], 1170 pM.

For the compound `CCC1(n2nc(Nc3ccc(C(=O)N4CCOCC(C)C4)c(C)c3)c3c(=O)[nH]ccc32)CCN(C(=O)OC(C)(C)C)CC1` (single isomer, unassigned) [Example 3-19, tert-butyl 4-ethyl-4-[3-({3-methyl-4-[(6R or 6S-methyl-1,4-oxazepan-4-yl)carbonyl]phenyl}amino)-4-oxo-4,5-dihydro-1H-pyrazolo [4,3-c]pyridin-1-yl] piperidine-1-carboxylate], the results for the IC50 in experiment [1] (setting [3]) and in experiment [2] were 1230 pM and 890 pM, respectively.

Turning to `CCC1(n2nc(Nc3ccc4c(c3)CN(C3CCN(C)CC3)S4(=O)=O)c3c(=O)[nH]ccc32)CCN(C(=O)OC(C)(C)C)CC1` [Example 2-30, tert-butyl 4-ethyl-4-(3-((2-(1-methylpiperidin-4-yl)-1,1-dioxido-2,3-dihydrobenzo [d]isothiazol-5-yl)amino)-4-oxo-4,5-dihydro-1H-pyrazolo [4,3-c]pyridin-1-yl) piperidine-1-carboxylate], the IC50 in experiment [1] (setting [3]) amounted to 290 pM; in experiment [2] it was 360 pM.

Take `CCC1(n2nc(Nc3ccc(C(=O)N4CCO[C@H](C)C4)c(C)c3)c3c(=O)[nH]ccc32)CCN(C(=O)OC(C)(C)C)CC1` [Example 2-7, (R)-tert-butyl-4-ethyl-4-(3-(3-methyl-4-(2-methylmorpholine-4-carbonyl)phenylamino)-4-oxo-4,5-dihydropyrazolo[4,3-c]pyridin-1-yl) piperidine-1-carboxylate]: the results for the IC50 in experiment [1] (setting [3]) and in experiment [2] were 720 pM and 600 pM, respectively.

`CCC1(n2nc(Nc3ccc(C(=O)N4CCOC5(CCCC5)C4)c(C)c3)c3c(=O)[nH]ccc32)CCN(C(=O)OC(C)(C)C)CC1` [Example 3-3, tert-butyl 4-ethyl-4-(3-{[3-methyl-4-(6-oxa-9-azaspiro[4.5]dec-9-ylcarbonyl)phenyl]amino}-4-oxo-4,5-dihydro-1H-pyrazolo[4,3-c]pyridin-1-yl) piperidine-1-carboxylate]: the IC50 is 990 pM in experiment [1] (setting [3]) and 1530 pM in experiment [2].

For `CCC1(n2nc(Nc3ccc(C(C)(O)C(F)(F)F)cc3)c3c(=O)[nH]ccc32)CCN(C(=O)OC(C)(C)C)CC1` (stereo not drawn) [Example 2-42, tert-butyl 4-ethyl-4-(4-oxo-3-((4-(1,1,1-trifluoro-2-hydroxypropan-2-yl)phenyl)amino)-4,5-dihydro-1H-pyrazolo[4,3-c]pyridin-1-yl) piperidine-1-carboxylate], the 50% inhibitory concentration (IC50) in experiment [1] (setting [3]) was found to be 1650 pM; in experiment [2], 4620 pM.

Regarding `CCC1(n2nc(Nc3ccc(C(=O)N4CCCSCC4)c(C)c3)c3c(=O)[nH]ccc32)CCN(C(=O)OC(C)(C)C)CC1` [Example 3-9, tert-butyl 4-ethyl-4-(3-{[3-methyl-4-(1,4-thiazepan-4-ylcarbonyl)phenyl]amino}-4-oxo-4,5-dihydro-1H-pyrazolo[4,3-c]pyridin-1-yl) piperidine-1-carboxylate], the half-inhibitory concentration (IC50) in experiment [1] (setting [3]) is 790 pM; in experiment [2], 1050 pM.

In the case of `CCC1(n2nc(Nc3ccc4c(c3)CN(C3(C)CCC(F)(F)CC3)C4=O)c3c(=O)[nH]ccc32)CCN(C(=O)OC(C)(C)C)CC1` [Example 2-2, tert-butyl 4-(3-(2-(4,4-difluoro-1-methylcyclohexyl)-1-oxoisoindolin-5-ylamino)-4-oxo-4,5-dihydropyrazolo[4,3-c]pyridin-1-yl)-4-ethylpiperidine-1-carboxylate], the half-inhibitory concentration (IC50) in experiment [1] (setting [3]) stood at 3210 pM; in experiment [2], 3160 pM.

In the case of `CCC1(n2nc(Nc3ccc(C(=O)N4CCOCC4)c(C)c3)c3c(=O)[nH]ccc32)CCN(C(=O)OC(C)(C)C)CC1` [Example 2-9, tert-butyl 4-ethyl-4-(3-((3-methyl-4-(morpholine-4-carbonyl)phenyl)amino)-4-oxo-4,5-dihydro-1H-pyrazolo[4,3-c]pyridin-1-yl) piperidine-1-carboxylate], the values for the IC50 in experiment [1] (setting [3]) and in experiment [2] were 370 pM and 470 pM, respectively.

Values taken from US10072025B2, “Ethyl N-boc piperidinyl pyrazolo pyridones as Janus kinase inhibitors” (Merck Sharp & Dohme Corp., priority 2014, dated 2018).
